# Measured values taken from patent publication US11291726B2 (KOREA INSTITUTE OF SCIENCE AND TECHNOLOGY, priority 2018, dated 2022).
# Key:
# [1] = Photothermal efficiency (solution temperature under laser irradiation); assay type: physicochemical; settings: laser 808 nm, 1 W; followed by temperature decrease due to photodegradation
# Text: Such an increase of photothermal efficiency of the ICG-Fe NPs is thought to be due to fluorescence of ICG, which competitively acts on the photothermal reaction and is present within the nanoparticles in a fluorescence-quenched state.
# [2] = system: nude mice; experiment: Toxicity in animal models (blood liver levels, liver/kidney tissue staining); assay type: in vivo; settings: 200 μL intravenously, male nude mice, two days later
# Text: Two days later, blood and liver/kidney tissues were collected and evaluated for toxicity.
# [3] = system: HT-29 cells (human colon cancer) solid tumors; experiment: Cancer cell accumulation in cancer disease model via fluorescence imaging; assay type: in vivo; settings: HT-29 tumor on left thigh of nude mice, 200 μL intravenously
# Procedure: The model with a cancer disease was prepared by subcutaneous injection of 1×10^7 HT-29 cells (human colon cancer, Korean Cell Line Bank) on the left thigh of 5-week-old male nude mice (Orientbio Inc., Korea). After 2 weeks of cancer cell transplantation, solid tumors were confirmed to be formed, and then subsequent experiments were performed.
compound,measurement,setting,value
"CC1(C)C(/C=C/C=C/C=C/C=C2\N(CCCCS(=O)(=O)O)c3ccc4ccccc4c3C2(C)C)=[N+](CCCCS(=O)(=O)[O-])c2ccc3ccccc3c21 [ICG, indocyanine green]",temperature increase at the beginning of laser irradiation,[1],about 45 °C
same,AST/ALT values (blood liver levels),[2],normal levels
same,immunostained liver/kidney tissues,[2],no abnormalities were found
same,fluorescence at the cancer site (accumulation),[3],did not show fluorescence at the cancer site
